{"source": "paper PMC3747139", "about": "(PLoS ONE, 2013)", "key": {"[1]": {"experiment": "Cell count assay (trypan blue)", "type": "cell-based", "design": "concentration or dose not given beside the values", "settings": "human; for viability at 24 h: read-out: Number of viable cells after 24 h of ligand treatment; for viability at 48 h: read-out: Number of viable cells after 48 h of ligand treatment", "procedure": "(§1) Normal and tumor cell lines were seeded at 20000–40000 cells/cm^2 with 0.2 mL/cm^2 media and incubated for 48 h at 37°C, 6% CO2, 95% relative humidity. […] After 24 h and 48 h of incubation, cells were washed with 300 µl PBS or 0.02% EDTA, trypsinized, followed by harvesting at 37°C. 200 µl cell suspension was transferred into 1.5 ml microcentrifuge tube. To the cell suspension, 300 µl PBS followed by 500 µl of 0.4% trypan blue solution was added. To get the homogenised solution, the microcentrifuge tube was gently tapped for 5 min, 20 µl of cell suspension was loaded in to a chamber of the haemocytometer."}, "A549": {"system": "A549", "experiment": "Cell count assay (trypan blue)", "type": "cell-based, human", "settings": "for Number of viable cells after 24 h of ligand treatment: A549, 24 h; for Number of viable cells after 48 h of ligand treatment: A549, 48 h", "procedure": "as §1"}, "B16F10": {"system": "B16F10", "experiment": "Cell count assay (trypan blue)", "type": "cell-based, human", "settings": "for Number of viable cells after 24 h of ligand treatment: B16F10, 24 h; for Number of viable cells after 48 h of ligand treatment: B16F10, 48 h", "procedure": "as §1"}, "MCF-7": {"system": "MCF-7", "experiment": "Cell count assay (trypan blue)", "type": "cell-based, human", "settings": "for Number of viable cells after 24 h of ligand treatment: MCF-7, 24 h; for Number of viable cells after 48 h of ligand treatment: MCF-7, 48 h", "procedure": "as §1"}, "HQF DNA [d(T2AG3)4]": {"system": "HQF DNA [d(T2AG3)4]", "experiment": "SYBR Green melting study with HQF DNA", "type": "binding, human", "settings": "melting temperature of HQF DNA (5 µM) in presence of 1 µM ligand", "procedure": "When quadruplex DNA melts to form ssDNA structure, SG fluorescence intensity gradually reduces as SG has no binding to ssDNA. Each time, 5 µM of HQF DNA [d(T2AG3)4)], 5 µM of dsDNA (prepared by mixing equal concentration of poly-dA-dT and poly-dT-dA), 5 µM ssDNA ( poly dT alone) and 1 µM of each ligand was incubated at 4°C for 16 h, and used for melting studies. […] Affinity, stoichiometry and thermodynamic parameters for quadruplex-ligand complex were studied with 60 µM of ligand and 10 µM of HQF DNA using Microcal VP-ITC (Northampton, MA, USA). Ligand addition to G-quadruplex DNA was made every 180 seconds. Titration experiments were performed thrice and blank correction was made each time to minimize error."}, "[2]": {"settings": "CRL-2115 cells (normal cell line), CRL-2115, 24 h"}, "[3]": {"settings": "CRL-2115 cells (normal cell line), CRL-2115, 48 h"}, "[4]": {"settings": "CRL-2120 cells (normal cell line), CRL-2120, 24 h"}, "[5]": {"settings": "CRL-2120 cells (normal cell line), CRL-2120, 48 h"}, "[6]": {"settings": "NCM-460 cells (normal cell line), NCM-460, 24 h"}, "[7]": {"settings": "NCM-460 cells (normal cell line), NCM-460, 48 h"}}, "note": "Like-named read-outs stand apart in the source and are kept apart here. Marks after values point to notes of the source that are not given here."}
{"smiles": "CCOC(=O)c1nnn(Cc2ccccc2)c1-c1ccccc1", "note": "[Ligand L9, Ethyl 1-benzyl-5-phenyl-1H-1,2,3-triazole-4-carboxylate]", "values": [{"measurement": "viability at 24 h", "setting": "[1]; [2]", "value": "80 to 90", "unit": "%"}, {"measurement": "viability at 48 h", "setting": "[1]; [3]", "value": "50 to 60", "unit": "%"}, {"measurement": "viability at 24 h", "setting": "[1]; [4]", "value": "80 to 90", "unit": "%"}, {"measurement": "viability at 48 h", "setting": "[1]; [5]", "value": "80 to 90", "unit": "%"}, {"measurement": "viability at 24 h", "setting": "[1]; [6]", "value": "80 to 90", "unit": "%"}, {"measurement": "viability at 48 h", "setting": "[1]; [7]", "value": "80 to 90", "unit": "%"}, {"measurement": "Number of viable cells after 24 h of ligand treatment", "setting": "A549", "value": "+ (Viable cells in the range of 80%–90%)"}, {"measurement": "Number of viable cells after 48 h of ligand treatment", "setting": "A549", "value": "++ (Viable cells in the range of 50%–60%)"}, {"measurement": "Number of viable cells after 24 h of ligand treatment", "setting": "B16F10", "value": "+ (Viable cells in the range of 80%–90%)"}, {"measurement": "Number of viable cells after 48 h of ligand treatment", "setting": "B16F10", "value": "++ (Viable cells in the range of 50%–60%)"}, {"measurement": "Number of viable cells after 24 h of ligand treatment", "setting": "MCF-7", "value": "+/+ (Viable cells in the range of 80%–90%)"}, {"measurement": "Number of viable cells after 48 h of ligand treatment", "setting": "MCF-7", "value": "+/+ (Viable cells in the range of 80%–90%)"}, {"measurement": "Tm", "setting": "HQF DNA [d(T2AG3)4]", "value": "29 ^o C"}]}
{"smiles": "CCOC(=O)c1nnn(Cc2ccccc2)c1/C=C/c1ccccc1", "note": "[Ligand L10, (E)-Ethyl 1-benzyl-5-styryl-1H-1,2,3-triazole-4-carboxylate]", "values": [{"measurement": "viability at 24 h", "setting": "[1]; [2]", "value": "80 to 90", "unit": "%"}, {"measurement": "viability at 48 h", "setting": "[1]; [3]", "value": "80 to 90", "unit": "%"}, {"measurement": "viability at 24 h", "setting": "[1]; [4]", "value": "80 to 90", "unit": "%"}, {"measurement": "viability at 48 h", "setting": "[1]; [5]", "value": "80 to 90", "unit": "%"}, {"measurement": "viability at 24 h", "setting": "[1]; [6]", "value": "80 to 90", "unit": "%"}, {"measurement": "viability at 48 h", "setting": "[1]; [7]", "value": "50 to 60", "unit": "%"}, {"measurement": "Number of viable cells after 24 h of ligand treatment", "setting": "A549", "value": "+/+ (Viable cells in the range of 80%–90%)"}, {"measurement": "Number of viable cells after 48 h of ligand treatment", "setting": "A549", "value": "+/+ (Viable cells in the range of 80%–90%)"}, {"measurement": "Number of viable cells after 24 h of ligand treatment", "setting": "B16F10", "value": "+ (Viable cells in the range of 80%–90%)"}, {"measurement": "Number of viable cells after 48 h of ligand treatment", "setting": "B16F10", "value": "++ (Viable cells in the range of 50%–60%)"}, {"measurement": "Number of viable cells after 24 h of ligand treatment", "setting": "MCF-7", "value": "+ (Viable cells in the range of 80%–90%)"}, {"measurement": "Number of viable cells after 48 h of ligand treatment", "setting": "MCF-7", "value": "++ (Viable cells in the range of 50%–60%)"}, {"measurement": "Tm", "setting": "HQF DNA [d(T2AG3)4]", "value": "33 ^o C"}]}
{"smiles": "CCOC(=O)c1nnn(Cc2ccccc2)c1-c1cccc(O)c1", "note": "[Ligand L11, Ethyl 1-benzyl-5-(3-hydroxyphenyl)-1H-1,2,3-triazole-4-carboxylate]", "values": [{"measurement": "viability at 24 h", "setting": "[1]; [2]", "value": "80 to 90", "unit": "%"}, {"measurement": "viability at 48 h", "setting": "[1]; [3]", "value": "80 to 90", "unit": "%"}, {"measurement": "viability at 24 h", "setting": "[1]; [4]", "value": "80 to 90", "unit": "%"}, {"measurement": "viability at 48 h", "setting": "[1]; [5]", "value": "80 to 90", "unit": "%"}, {"measurement": "viability at 24 h", "setting": "[1]; [6]", "value": "80 to 90", "unit": "%"}, {"measurement": "viability at 48 h", "setting": "[1]; [7]", "value": "80 to 90", "unit": "%"}, {"measurement": "Number of viable cells after 24 h of ligand treatment", "setting": "A549", "value": "+ (Viable cells in the range of 80%–90%)"}, {"measurement": "Number of viable cells after 48 h of ligand treatment", "setting": "A549", "value": "++ (Viable cells in the range of 50%–60%)"}, {"measurement": "Number of viable cells after 24 h of ligand treatment", "setting": "B16F10", "value": "+ (Viable cells in the range of 80%–90%)"}, {"measurement": "Number of viable cells after 48 h of ligand treatment", "setting": "B16F10", "value": "++ (Viable cells in the range of 50%–60%)"}, {"measurement": "Number of viable cells after 24 h of ligand treatment", "setting": "MCF-7", "value": "+ (Viable cells in the range of 80%–90%)"}, {"measurement": "Number of viable cells after 48 h of ligand treatment", "setting": "MCF-7", "value": "++ (Viable cells in the range of 50%–60%)"}, {"measurement": "Tm", "setting": "HQF DNA [d(T2AG3)4]", "value": "28 ^o C"}]}
{"smiles": "C(=C\\c1c(-c2ccccc2)nnn1CC1CCCCO1)/c1ccccc1", "note": "(centres unmarked) [Ligand L12, (E)-4-Phenyl-5-styryl-1-((tetrahydro-2H-pyran-2-yl)methyl)-1H-1,2,3-triazole]", "values": [{"measurement": "viability at 24 h", "setting": "[1]; [2]", "value": "80 to 90", "unit": "%"}, {"measurement": "viability at 48 h", "setting": "[1]; [3]", "value": "80 to 90", "unit": "%"}, {"measurement": "viability at 24 h", "setting": "[1]; [4]", "value": "80 to 90", "unit": "%"}, {"measurement": "viability at 48 h", "setting": "[1]; [5]", "value": "80 to 90", "unit": "%"}, {"measurement": "viability at 24 h", "setting": "[1]; [6]", "value": "80 to 90", "unit": "%"}, {"measurement": "viability at 48 h", "setting": "[1]; [7]", "value": "50 to 60", "unit": "%"}, {"measurement": "Number of viable cells after 24 h of ligand treatment", "setting": "A549", "value": "+/+ (Viable cells in the range of 80%–90%)"}, {"measurement": "Number of viable cells after 48 h of ligand treatment", "setting": "A549", "value": "+/+ (Viable cells in the range of 80%–90%)"}, {"measurement": "Number of viable cells after 24 h of ligand treatment", "setting": "B16F10", "value": "+ (Viable cells in the range of 80%–90%)"}, {"measurement": "Number of viable cells after 48 h of ligand treatment", "setting": "B16F10", "value": "++ (Viable cells in the range of 50%–60%)"}, {"measurement": "Number of viable cells after 24 h of ligand treatment", "setting": "MCF-7", "value": "+ (Viable cells in the range of 80%–90%)"}, {"measurement": "Number of viable cells after 48 h of ligand treatment", "setting": "MCF-7", "value": "++ (Viable cells in the range of 50%–60%)"}, {"measurement": "Tm", "setting": "HQF DNA [d(T2AG3)4]", "value": "31 ^o C"}]}
{"smiles": "Oc1cccc(-c2c(-c3ccccc3)nnn2CC2CCCCO2)c1", "note": "(centres unmarked) [Ligand L13, 3-(5-Phenyl-3-((tetrahydro-2H-pyran-2-yl)methyl)-3H-1,2,3-triazol-4-yl)phenol]", "values": [{"measurement": "viability at 24 h", "setting": "[1]; [2]", "value": "80 to 90", "unit": "%"}, {"measurement": "viability at 48 h", "setting": "[1]; [3]", "value": "80 to 90", "unit": "%"}, {"measurement": "viability at 24 h", "setting": "[1]; [4]", "value": "80 to 90", "unit": "%"}, {"measurement": "viability at 48 h", "setting": "[1]; [5]", "value": "80 to 90", "unit": "%"}, {"measurement": "viability at 24 h", "setting": "[1]; [6]", "value": "80 to 90", "unit": "%"}, {"measurement": "viability at 48 h", "setting": "[1]; [7]", "value": "80 to 90", "unit": "%"}, {"measurement": "Number of viable cells after 24 h of ligand treatment", "setting": "A549", "value": "+/+ (Viable cells in the range of 80%–90%)"}, {"measurement": "Number of viable cells after 48 h of ligand treatment", "setting": "A549", "value": "+/+ (Viable cells in the range of 80%–90%)"}, {"measurement": "Number of viable cells after 24 h of ligand treatment", "setting": "B16F10", "value": "+ (Viable cells in the range of 80%–90%)"}, {"measurement": "Number of viable cells after 48 h of ligand treatment", "setting": "B16F10", "value": "++ (Viable cells in the range of 50%–60%)"}, {"measurement": "Number of viable cells after 24 h of ligand treatment", "setting": "MCF-7", "value": "+/+ (Viable cells in the range of 80%–90%)"}, {"measurement": "Number of viable cells after 48 h of ligand treatment", "setting": "MCF-7", "value": "+/+ (Viable cells in the range of 80%–90%)"}, {"measurement": "Tm", "setting": "HQF DNA [d(T2AG3)4]", "value": "33 ^o C"}]}
